# Test results: patent US9421209B2, “Kinase modulators” (Rhizen Pharmaceuticals SA, priority 2009, dated 2016)
# Columns and labels:
# P110 δ/Pi3K δ = P110 δ/Pi3K δ (Homo sapiens, UniProt O00329); test: Fluorescent (HTRF) determination of PI3K enzyme activity, δ isoform; type: biochemical; set-up: inhibition: dose or concentration left out as unconfirmed; settings: for IC50: read-out: P110 δ/Pi3K δ IC 50 nM
# Text: Assay 1: Fluorescent determination of PI3Kinase Kinase enzyme activity
# Phosphoinositide 3 kinases (PI3K) belong to a class of lipid kinases that play a critical role in the regulation of several key cellular processes. The PI3K are capable of phosphorylating the 3-hydroxy position of phosphoinositols thereby generating second messengers involved in downstream signalling events. The homogenous time resolved fluorescence (HTRF) assay allows detection of 3,4,5-triphosphate (PIP3) formed as a result of phosphorylation of phosphotidylinositol 4,5-biphosphate (PIP2) by PI3K isoforms such as α, β, γ or δ.
# PI3K isoform activity for α, β, γ or δ was determined using a PI3K human HTRF™ Assay Kit (Millipore, Billerica, Mass.) with modifications. All incubations were carried out at room temperature. […] After the initial incubation, 5 μl/well of 400 μM ATP was added and incubated for an additional 30 minutes. Reaction was terminated by adding 5 μl/well stop solution (Millipore, Billerica, Mass.). Five microliters of detection mix (Millipore, Billerica, Mass.) were then added to each well and was incubated for 6-18 h in the dark. […] Data were analyzed using Graphpad Prism (Graphpad software; San Diego Calif.) for IC50 determination. Percent inhibition was calculated based on the values for the blank and enzyme controls.
# Chain of P110 δ/Pi3K δ (O00329 whole entry, canonical isoform): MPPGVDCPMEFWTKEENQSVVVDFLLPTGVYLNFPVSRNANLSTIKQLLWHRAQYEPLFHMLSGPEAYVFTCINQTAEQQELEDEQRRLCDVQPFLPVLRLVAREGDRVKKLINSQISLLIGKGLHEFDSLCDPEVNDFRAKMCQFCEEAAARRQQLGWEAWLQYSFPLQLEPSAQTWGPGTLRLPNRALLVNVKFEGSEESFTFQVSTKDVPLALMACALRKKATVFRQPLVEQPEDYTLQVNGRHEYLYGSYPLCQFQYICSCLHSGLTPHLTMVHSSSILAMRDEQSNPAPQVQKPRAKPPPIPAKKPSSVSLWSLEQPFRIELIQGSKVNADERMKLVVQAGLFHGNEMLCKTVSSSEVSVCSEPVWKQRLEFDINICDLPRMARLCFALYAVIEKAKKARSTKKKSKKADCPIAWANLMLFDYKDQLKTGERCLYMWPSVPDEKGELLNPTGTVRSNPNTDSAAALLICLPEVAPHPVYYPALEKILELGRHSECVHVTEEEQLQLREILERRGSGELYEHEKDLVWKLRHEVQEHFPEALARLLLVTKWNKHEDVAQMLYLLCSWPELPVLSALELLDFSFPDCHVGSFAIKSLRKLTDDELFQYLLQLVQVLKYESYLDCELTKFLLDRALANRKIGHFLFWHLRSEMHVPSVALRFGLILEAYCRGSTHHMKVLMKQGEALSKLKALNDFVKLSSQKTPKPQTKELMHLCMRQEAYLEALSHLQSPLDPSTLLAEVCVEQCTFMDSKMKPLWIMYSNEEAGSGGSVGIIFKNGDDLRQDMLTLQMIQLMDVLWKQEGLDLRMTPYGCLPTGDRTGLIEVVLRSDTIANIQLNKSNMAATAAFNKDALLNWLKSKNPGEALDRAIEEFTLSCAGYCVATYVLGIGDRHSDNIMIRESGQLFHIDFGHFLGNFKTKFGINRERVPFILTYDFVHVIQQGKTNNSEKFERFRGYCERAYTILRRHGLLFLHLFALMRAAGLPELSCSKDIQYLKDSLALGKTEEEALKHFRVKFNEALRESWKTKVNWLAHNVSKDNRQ
# Chain of P110 δ/Pi3K δ (P27986 whole entry partner, canonical isoform): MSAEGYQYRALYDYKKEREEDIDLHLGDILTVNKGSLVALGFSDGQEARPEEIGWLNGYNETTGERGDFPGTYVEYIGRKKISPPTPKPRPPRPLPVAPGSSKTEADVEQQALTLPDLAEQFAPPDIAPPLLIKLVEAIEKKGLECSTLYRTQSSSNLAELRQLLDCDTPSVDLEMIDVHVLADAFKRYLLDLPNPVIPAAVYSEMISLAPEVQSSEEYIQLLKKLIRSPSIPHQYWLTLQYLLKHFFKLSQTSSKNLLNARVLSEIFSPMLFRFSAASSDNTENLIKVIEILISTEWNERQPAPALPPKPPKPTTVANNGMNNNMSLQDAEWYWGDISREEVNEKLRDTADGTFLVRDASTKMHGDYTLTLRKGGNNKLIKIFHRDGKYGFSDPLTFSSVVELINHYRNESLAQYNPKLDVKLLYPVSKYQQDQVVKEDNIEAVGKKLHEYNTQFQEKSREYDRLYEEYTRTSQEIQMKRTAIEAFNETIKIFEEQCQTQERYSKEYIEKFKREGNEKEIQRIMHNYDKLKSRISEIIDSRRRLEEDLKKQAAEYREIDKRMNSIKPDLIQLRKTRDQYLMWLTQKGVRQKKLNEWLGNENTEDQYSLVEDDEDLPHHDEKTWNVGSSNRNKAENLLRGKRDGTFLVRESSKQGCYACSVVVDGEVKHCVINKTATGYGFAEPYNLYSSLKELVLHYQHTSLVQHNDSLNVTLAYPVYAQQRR
Compound,melting point,inhibition at 1 µM (P110 δ/Pi3K δ),IC50 (P110 δ/Pi3K δ),inhibition (P110 δ/Pi3K δ)
"Nc1ncnc2c1c(C#CCO)nn2Cc1oc2ccccc2c(=O)c1-c1ccccc1 [Example 59, 2-((4-amino-3-(3-hydroxyprop-1-ynyl)-1H-pyrazolo[3,4-d]pyrimidin-1-yl)methyl)-3-phenyl-4H-chromen-4-one]",171 to 173 °C,50 to 100%,250 to 500 nM,
"Nc1ncnc2c1c(-c1cn[nH]c1)nn2Cc1oc2ccccc2c(=O)c1-c1ccccc1 [Example 60, 2-((4-amino-3-(1H-pyrazol-4-yl)-1H-pyrazolo[3,4-d]pyrimidin-1-yl)methyl)-3-phenyl-4H-chromen-4-one]",235 to 237 °C,50 to 100%,< 250 nM,
"Nc1ncnc2c1c(-c1cccc(CO)c1)nn2Cc1oc2ccccc2c(=O)c1-c1ccccc1 [Example 61, 2-((4-amino-3-(3-(hydroxymethyl)phenyl)-1H-pyrazolo[3,4-d]pyrimidin-1-yl)methyl)-3-phenyl-4H-chromen-4-one]",219 to 223 °C,< 50%,,
"Nc1ncnc2c1c(-c1cccc3[nH]ncc13)nn2Cc1oc2ccccc2c(=O)c1-c1ccccc1 [Example 62, 2-((4-amino-3-(1H-indazol-4-yl)-1H-pyrazolo[3,4-d]pyrimidin-1-yl)methyl)-3-phenyl-4H-chromen-4-one]",248 to 252 °C,< 50%,,
"Nc1ncnc2c1c(-c1cccc(F)c1)nn2Cc1oc2ccccc2c(=O)c1-c1ccccc1 [Example 63, 2-((4-amino-3-(3-fluorophenyl)-1H-pyrazolo[3,4-d]pyrimidin-1-yl)methyl)-3-phenyl-4H-chromen-4-one]",244 to 247 °C,< 50%,,
"Nc1ncnc2c1c(CCCO)nn2Cc1oc2ccccc2c(=O)c1-c1ccccc1 [Example 64, 2-((4-amino-3-(3-hydroxypropyl)-1H-pyrazolo[3,4-d]pyrimidin-1-yl)methyl)-3-phenyl-4H-chromen-4-one]",182 to 184 °C,< 50%,,
"CC(=O)Nc1cccc(-c2nn(Cc3oc4ccccc4c(=O)c3-c3ccccc3)c3ncnc(N)c23)c1 [Example 65, N-(3-(4-amino-1-((4-oxo-3-phenyl-4H-chromen-2-yl)methyl)-1H-pyrazolo[3,4-d]pyrimidin-3-yl)phenyl)acetamide]",122 to 123 °C,< 50%,,
"Nc1ncnc2c1c(-c1cc(O)cc(F)c1)nn2Cc1oc2ccccc2c(=O)c1-c1ccccc1 [Example 66a, 2-((4-amino-3-(3-fluoro-5-hydroxyphenyl)-1H-pyrazolo[3,4-d]pyrimidin-1-yl)methyl)-3-phenyl-4H-chromen-4-one]",260 to 262 °C,50 to 100%,< 250 nM,
"COc1cc(F)cc(-c2nn(Cc3oc4ccccc4c(=O)c3-c3cccc(F)c3)c3ncnc(N)c23)c1 [Example 67, 2-((4-amino-3-(3-fluoro-5-methoxyphenyl)-1H-pyrazolo[3,4-d]pyrimidin-1-yl)methyl)-3-(3-fluorophenyl)-4H-chromen-4-one]",115 to 117 °C,< 50%,,
"CC(c1oc2ccccc2c(=O)c1-c1ccccc1)n1nc(-c2cn[nH]c2)c2c(N)ncnc21 (stereo not shown) [Example 69, 2-(1-(4-amino-3-(1H-pyrazol-4-yl)-1H-pyrazolo[3,4-d]pyrimidin-1-yl)ethyl)-3-phenyl-4H-chromen-4-one]",214 to 217 °C,50 to 100%,,
"CC(c1oc2ccccc2c(=O)c1-c1ccccc1)n1nc(-c2ccc3cn[nH]c3c2)c2c(N)ncnc21 (stereo not shown) [Example 70, 2-(1-(4-amino-3-(1H-indazol-6-yl)-1H-pyrazolo[3,4-d]pyrimidin-1-yl)ethyl)-3-phenyl-4H-chromen-4-one]",176 to 178 °C,50 to 100%,,
"CC(c1oc2ccccc2c(=O)c1-c1ccccc1)n1nc(C#CC(C)(C)O)c2c(N)ncnc21 (stereo not shown) [Example 71, 2-(1-(4-amino-3-(3-hydroxy-3-methylbut-1-ynyl)-1H-pyrazolo[3,4-d]pyrimidin-1-yl)ethyl)-3-phenyl-4H-chromen-4-one]",109 to 113 °C,< 50%,,
"CC(c1oc2ccccc2c(=O)c1-c1cccc(F)c1)n1nc(-c2cn[nH]c2)c2c(N)ncnc21 (stereo not shown) [Example 72, 2-(1-(4-amino-3-(1H-pyrazol-4-yl)-1H-pyrazolo[3,4-d]pyrimidin-1-yl)ethyl)-3-(3-fluorophenyl)-4H-chromen-4-one]",223 to 226 °C,50 to 100%,< 250 nM,
"C[C@H](Nc1ncnc2[nH]cnc12)c1oc2ccccc2c(=O)c1-c1ccccc1 [Example 73, (S)-2-(1-(9H-purin-6-ylamino)ethyl)-3-phenyl-4H-chromen-4-one]",135 to 138 °C,50 to 100%,,
"Nc1ncnc2c1c(-c1ccc3cn[nH]c3c1)nn2Cc1oc2ccccc2c(=O)c1-c1ccccc1 [Example 75, 2-((4-amino-3-(1H-indazol-6-yl)-1H-pyrazolo[3,4-d]pyrimidin-1-yl)methyl)-3-phenyl-4H-chromen-4-one]",140 to 143 °C,50 to 100%,,
"CC(c1oc2ccccc2c(=O)c1-c1cccc(F)c1)n1nc(-c2cc(O)cc(F)c2)c2c(N)ncnc21 (stereo not shown) [Example 76a, 2-(1-(4-amino-3-(3-fluoro-5-hydroxyphenyl)-1H-pyrazolo[3,4-d]pyrimidin-1-yl)ethyl)-3-(3-fluorophenyl)-4H-chromen-4-one]",271 to 273 °C,50 to 100%,,
"CC(c1oc2ccccc2c(=O)c1-c1cccc(F)c1)n1nc(-c2cccc3[nH]ncc23)c2c(N)ncnc21 (stereo not shown) [Example 77, 2-(1-(4-amino-3-(1H-indazol-4-yl)-1H-pyrazolo[3,4-d]pyrimidin-1-yl)ethyl)-3-(3-fluorophenyl)-4H-chromen-4-one]",231 to 233 °C,50 to 100%,,

# Further lines, results first:
melting point,inhibition at 1 µM (P110 δ/Pi3K δ),IC50 (P110 δ/Pi3K δ),inhibition (P110 δ/Pi3K δ),Compound
240 to 243 °C,,,< 50%,"Cc1n[nH]c(C)c1-c1nn(C(C)c2oc3ccccc3c(=O)c2-c2cccc(F)c2)c2ncnc(N)c12 (stereo not shown) [Example 78, 2-(1-(4-amino-3-(3,5-dimethyl-1H-pyrazol-4-yl)-1H-pyrazolo[3,4-d]pyrimidin-1-yl)ethyl)-3-(3-fluorophenyl)-4H-chromen-4-one]"
206 to 208 °C,,,< 50%,"CC(c1oc2ccccc2c(=O)c1-c1cccc(F)c1)n1nc(-c2ccc3cn[nH]c3c2)c2c(N)ncnc21 (stereo not shown) [Example 80, 2-(1-(4-amino-3-(1H-indazol-6-yl)-1H-pyrazolo[3,4-d]pyrimidin-1-yl)ethyl)-3-(3-fluorophenyl)-4H-chromen-4-one]"
185 to 189 °C,,,< 50%,"CC(c1oc2ccccc2c(=O)c1-c1cccc(F)c1)n1nc(-c2ccccc2CO)c2c(N)ncnc21 (stereo not shown) [Example 81, 2-(1-(4-amino-3-(2-(hydroxymethyl)phenyl)-1H-pyrazolo[3,4-d]pyrimidin-1-yl)ethyl)-3-(3-fluorophenyl)-4H-chromen-4-one]"
171 to 173 °C,,,50 to 100%,"CC(c1oc2ccccc2c(=O)c1-c1cccc(F)c1)n1nc(C#CCO)c2c(N)ncnc21 (stereo not shown) [Example 83, 2-(1-(4-amino-3-(3-hydroxyprop-1-ynyl)-1H-pyrazolo[3,4-d]pyrimidin-1-yl)ethyl)-3-(3-fluorophenyl)-4H-chromen-4-one]"
122 to 124 °C,,,50 to 100%,"CC(c1oc2ccccc2c(=O)c1-c1cccc(F)c1)n1nc(-c2cc(O)cc(Cl)c2)c2c(N)ncnc21 (stereo not shown) [Example 86a, 2-(1-(4-amino-3-(3-chloro-5-hydroxyphenyl)-1H-pyrazolo[3,4-d]pyrimidin-1-yl)ethyl)-3-(3-fluorophenyl)-4H-chromen-4-one]"
155 to 157 °C,,,50 to 100%,"CC(c1oc2ccccc2c(=O)c1-c1cccc(F)c1)n1nc(-c2cccc(OC(F)(F)F)c2)c2c(N)ncnc21 (stereo not shown) [Example 87, 2-(1-(4-amino-3-(3-(trifluoromethoxy)phenyl)-1H-pyrazolo[3,4-d]pyrimidin-1-yl)ethyl)-3-(3-fluorophenyl)-4H-chromen-4-one]"
244 to 247 °C,,,50 to 100%,"CC(c1oc2ccccc2c(=O)c1-c1cccc(F)c1)n1nc(-c2ccc(O)cc2)c2c(N)ncnc21 (stereo not shown) [Example 88a, 2-(1-(4-amino-3-(4-hydroxyphenyl)-1H-pyrazolo[3,4-d]pyrimidin-1-yl)ethyl)-3-(3-fluorophenyl)-4H-chromen-4-one]"
224 to 227 °C,,,< 50%,"Nc1ncnc2c1ncn2Cc1oc2ccccc2c(=O)c1-c1cccc(F)c1 [Example 89, 2-((6-amino-9H-purin-9-yl)methyl)-3-(3-fluorophenyl)-4H-chromen-4-one]"
157 to 159 °C,,,< 50%,"Nc1cccc(-c2nn(Cc3oc4ccccc4c(=O)c3-c3ccccc3)c3ncnc(N)c23)c1 [Example 91, 2-((4-amino-3-(3-aminophenyl)-1H-pyrazolo[3,4-d]pyrimidin-1-yl)methyl)-3-phenyl-4H-chromen-4-one]"
264 to 268 °C,,,50 to 100%,"CC(c1oc2ccccc2c(=O)c1-c1cccc(F)c1)n1nc(-c2cnc(N)nc2)c2c(N)ncnc21 (stereo not shown) [Example 93, 2-(1-(4-amino-3-(2-aminopyrimidin-5-yl)-1H-pyrazolo[3,4-d]pyrimidin-1-yl)ethyl)-3-(3-fluorophenyl)-4H-chromen-4-one]"
